Experimental data as given in publication PMC12552119, “Tailored structured peptide design with a key-cutting machine approach” (Nature Machine Intelligence, 2025).
Where no end group is shown, it is not given here.

Columns and labels:
HEK293T cells = experiment: Cytotoxicity, MTT assay; assay type: cell-based, human; settings: 24 h
Description: Fig. 3 Mechanism of action and cytotoxic activity of designed peptides. a, To assess whether the peptides act on bacterial membranes, all active peptides against A. baumannii American Type Culture Collection (ATCC) 19606 were subjected to outer-membrane permeabilization, and peptides active against A. baumannii ATCC 19606 and vancomycin-resistant E. faecalis ATCC 700802 were tested in cytoplasmic-membrane depolarization assays. b, The fluorescent probe NPN was used to assess membrane permeabilization induced by the tested peptides. c,d, The fluorescent probe DiSC3-5 was used to evaluate membrane depolarization caused by the designed peptides in A. baumannii ATCC 19606 (c) and vancomycin-resistant E. faecalis ATCC 700802 (d). […] All experiments were performed in three independent replicates. Panel a created with BioRender.com. Source data TEXT PRINTED IN THE PICTURE: (e) AT1: CC50 (μmol l^-1), HEK293T cells: 2,758 | (e) AT2: CC50 (μmol l^-1), HEK293T cells: 2 × 10^37 | (e) AT3: CC50 (μmol l^-1), HEK293T cells: 269 | (e) AT4: CC50 (μmol l^-1), HEK293T cells: 3,015 | (e) AT5: CC50 (μmol l^-1), HEK293T cells: 6 × 10^41 | (e) NE1: CC50 (μmol l^-1), HEK293T cells: 6 × 10^33 | (e) NE2: CC50 (μmol l^-1), HEK293T cells: 507 | (e) NE3: CC50 (μmol l^-1), HEK293T cells: 655 | (e) NE4: CC50 (μmol l^-1), HEK293T cells: 2 × 10^32 | (e) NG1: CC50 (μmol l^-1), HEK293T cells: 351 | (e) NG2: CC50 (μmol l^-1), HEK293T cells: 1 × 10^35 | (e) NG3: CC50 (μmol l^-1), HEK293T cells: 2 × 10^46 DOUBTS OF THE COPYIST ABOUT THIS PICTURE: AT2, CC50: small exponent, 37 or 57 / AT5, CC50: small exponent, 41 uncertain / NE1, CC50: small exponent, 33 or 38 / NE4, CC50: small exponent, 32 or 52 / NG2, CC50: small exponent, 35 or 36 / NG3, CC50: small exponent, 46 or 48 […]
HEK293T cells were obtained from the ATCC (CRL-3216). The cells were cultured in high-glucose DMEM supplemented with 1% penicillin and streptomycin (antibiotics) and 10% fetal bovine serum and grown at 37 °C in a humidified atmosphere containing 5% CO2.
One day before the experiment, an aliquot of 100 μl of the cells at 50,000 cells ml^−1 was seeded into each well of the cell-treated 96-well plates used in the experiment (that is, 5,000 cells per well)[45]. The attached HEK293T cells were then exposed to increasing concentrations of the peptides (4–64 μmol l^−1) for 24 h. After the incubation period, we performed the (3-(4,5-dimethylthiazol-2-yl)-2,5-diphenyltetrazolium bromide) tetrazolium reduction assay (MTT assay)[45]. […] The resulting salts were then resuspended in hydrochloric acid (0.04 mol l^−1) in anhydrous isopropanol and quantified by spectrophotometric measurements of absorbance at 570 nm. […]

K. pneumoniae ATCC 13883 = assay type: cell-based, Klebsiella pneumoniae; settings: ATCC 13883, 24 h
Description: (§1) Fig. 2 Antimicrobial activity and secondary structure of computationally designed peptides. a, Structure prediction of the synthesized peptides. b, Heatmap of the antimicrobial activities of the peptides against 11 clinically relevant pathogens, including four strains resistant to conventional antibiotics. Briefly, 10^6 bacterial cells and serially diluted peptides (1-64 μmol l^−1) were incubated at 37 °C. One day after treatment, the optical density at 600 nm was measured in a microplate reader to evaluate bacterial growth in the presence of the peptides. MIC values in the heatmap are the mode of the replicates in each condition. c–f, Ternary plots showing the percentage of secondary structure for each peptide (at 50 μmol l^−1) in four different solvents: water (c), 60% TFE in water (d), 10 mmol l^−1 SDS in water (e) and 50% methanol (MeOH) in water (f). Secondary structure fractions were calculated using the BeStSel server. […] An error of one column cannot be fully excluded. / Panel b: AT1, AT2, AT3 and all blank cells print no number and are left out.
(§2) In this study, we used the following pathogenic bacterial strains: A. baumannii ATCC 19606, E. coli AIC221 (E. coli MG1655 phnE_2::FRT (control strain for AIC222)) and E. coli AIC222 (E. coli MG1655 pmrA53 phnE_2::FRT (polymyxin resistant; colistin-resistant strain)), Klebsiella pneumoniae ATCC 13883, Pseudomonas aeruginosa PAO1, P. aeruginosa PA14 and Staphylococcus aureus ATCC 12600. All pathogens were grown in Luria–Bertani (LB) broth and on LB agar. Pseudomonas isolation (P. aeruginosa strains) agar plates were exclusively used in the case of Pseudomonas species. In all the experiments, bacteria were inoculated from one isolated colony and grown overnight (16 h) in liquid medium at 37 °C. On the following day, inocula were diluted 1:100 in fresh media and incubated at 37 °C to mid-logarithmic phase.
(§3) Broth microdilution assays[64] were conducted to establish the MIC for each peptide. Peptides were added to untreated polystyrene 96-well microtiter plates and serially diluted twofold in sterile water, ranging from 1 to 64 μmol l^−1. A bacterial inoculum at a concentration of 10^6 CFU ml^−1 in LB medium was then mixed in a 1:1 ratio with the peptide solution. […] Each assay was performed in three independent replicates.

A. baumannii ATCC 19606 = assay type: cell-based, Acinetobacter baumannii; settings: ATCC 19606, 24 h
Description: as §1, §2, §3

[1] = test system: E. faecium ATCC 700221 - VRE; assay type: cell-based; settings: ATCC 700221, 24 h
Description: as §1, §3

[2] = test system: S. aureus ATCC BAA-1556 - MRSA; assay type: cell-based; settings: ATCC BAA-1556, 24 h
Description: as §1, §3

S. aureus ATCC 12600 = assay type: cell-based, Staphylococcus aureus; settings: ATCC 12600, 24 h
Description: as §1, with “out. […]” for “out.”

Sequence: FRLAAVLHFHIH [AT4]
- CC50, cytotoxic concentration leading to 50% cell lysis (HEK293T cells): 3.015 mM
- MIC (K. pneumoniae ATCC 13883): 8 µM
- MIC (A. baumannii ATCC 19606): 32 µM
- MIC [1]: 32 µM
- MIC [2]: 16 µM
- MIC (S. aureus ATCC 12600): 64 µM
